Consider six compounds from BindingDB's records for doi:10.1007/s00213-002-1073-7 (WestfÄLische Wilhelms-Universit&Auml, 2002).

For assay [1], the target named is T1, 5-hydroxytryptamine receptor 1A (Homo sapiens, UniProt P08908).
T1 sequence (P08908 whole entry): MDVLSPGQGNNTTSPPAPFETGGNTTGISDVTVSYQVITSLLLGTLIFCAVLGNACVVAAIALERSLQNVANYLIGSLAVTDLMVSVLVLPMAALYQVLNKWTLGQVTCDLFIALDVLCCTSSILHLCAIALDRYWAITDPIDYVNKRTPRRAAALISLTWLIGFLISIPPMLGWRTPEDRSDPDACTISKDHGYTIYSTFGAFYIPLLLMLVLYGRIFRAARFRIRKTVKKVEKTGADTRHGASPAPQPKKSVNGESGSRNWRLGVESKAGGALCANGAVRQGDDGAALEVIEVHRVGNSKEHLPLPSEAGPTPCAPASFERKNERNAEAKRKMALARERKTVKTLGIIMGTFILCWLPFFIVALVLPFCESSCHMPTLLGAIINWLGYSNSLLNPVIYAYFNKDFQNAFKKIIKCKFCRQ

Assay [2] addresses T2, Muscarinic acetylcholine receptor M2 (Homo sapiens, UniProt P08172).
T2 sequence (P08172 whole entry): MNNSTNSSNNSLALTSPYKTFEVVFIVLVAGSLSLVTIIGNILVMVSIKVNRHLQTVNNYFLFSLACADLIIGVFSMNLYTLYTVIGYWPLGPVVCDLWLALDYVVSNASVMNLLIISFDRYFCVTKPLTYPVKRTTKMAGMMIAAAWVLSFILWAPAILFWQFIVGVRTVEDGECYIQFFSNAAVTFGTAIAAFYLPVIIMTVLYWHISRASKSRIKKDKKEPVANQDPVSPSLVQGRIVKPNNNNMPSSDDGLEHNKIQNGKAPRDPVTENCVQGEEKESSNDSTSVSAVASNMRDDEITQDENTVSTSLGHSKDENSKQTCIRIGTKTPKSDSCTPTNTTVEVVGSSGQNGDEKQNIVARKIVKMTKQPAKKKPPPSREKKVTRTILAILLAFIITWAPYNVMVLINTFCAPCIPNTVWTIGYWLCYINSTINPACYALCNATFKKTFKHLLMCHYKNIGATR

Assay [3] addresses Sodium-dependent dopamine transporter (Bos taurus, UniProt P27922).
Assay [4] deals with T3, Alpha-2C adrenergic receptor (Homo sapiens, UniProt P18825).
T3 sequence (P18825 whole entry): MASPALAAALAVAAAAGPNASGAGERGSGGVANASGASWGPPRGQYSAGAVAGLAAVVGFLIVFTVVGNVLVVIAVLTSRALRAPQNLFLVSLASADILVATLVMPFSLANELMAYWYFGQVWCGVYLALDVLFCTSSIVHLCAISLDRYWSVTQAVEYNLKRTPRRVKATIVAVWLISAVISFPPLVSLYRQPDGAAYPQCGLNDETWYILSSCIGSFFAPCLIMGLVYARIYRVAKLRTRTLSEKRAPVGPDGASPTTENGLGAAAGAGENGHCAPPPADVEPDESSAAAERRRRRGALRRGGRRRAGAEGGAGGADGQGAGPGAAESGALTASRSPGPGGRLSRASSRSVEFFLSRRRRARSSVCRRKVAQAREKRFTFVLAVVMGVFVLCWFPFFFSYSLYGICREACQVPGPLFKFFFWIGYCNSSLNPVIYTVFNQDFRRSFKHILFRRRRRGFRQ

For assay [5], the target named is T4, Muscarinic acetylcholine receptor M5 (Homo sapiens, UniProt P08912).
T4 sequence (P08912 whole entry): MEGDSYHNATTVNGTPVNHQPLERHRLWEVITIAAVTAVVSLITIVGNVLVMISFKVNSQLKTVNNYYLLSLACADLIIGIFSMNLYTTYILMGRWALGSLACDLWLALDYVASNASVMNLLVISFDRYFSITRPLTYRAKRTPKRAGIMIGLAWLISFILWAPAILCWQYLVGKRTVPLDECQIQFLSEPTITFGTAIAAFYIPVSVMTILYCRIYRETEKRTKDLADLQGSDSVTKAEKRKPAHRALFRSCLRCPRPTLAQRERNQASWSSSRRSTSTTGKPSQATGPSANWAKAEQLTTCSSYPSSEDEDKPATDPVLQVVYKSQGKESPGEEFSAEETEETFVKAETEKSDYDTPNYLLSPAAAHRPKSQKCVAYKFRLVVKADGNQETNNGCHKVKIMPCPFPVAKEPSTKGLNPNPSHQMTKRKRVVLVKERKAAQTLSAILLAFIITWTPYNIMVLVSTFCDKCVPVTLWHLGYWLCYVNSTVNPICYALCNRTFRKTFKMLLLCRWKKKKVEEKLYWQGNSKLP

In the next assay the target is D(3) dopamine receptor (Rattus norvegicus, UniProt P19020).
D(3) dopamine receptor, sequence (P19020 whole entry): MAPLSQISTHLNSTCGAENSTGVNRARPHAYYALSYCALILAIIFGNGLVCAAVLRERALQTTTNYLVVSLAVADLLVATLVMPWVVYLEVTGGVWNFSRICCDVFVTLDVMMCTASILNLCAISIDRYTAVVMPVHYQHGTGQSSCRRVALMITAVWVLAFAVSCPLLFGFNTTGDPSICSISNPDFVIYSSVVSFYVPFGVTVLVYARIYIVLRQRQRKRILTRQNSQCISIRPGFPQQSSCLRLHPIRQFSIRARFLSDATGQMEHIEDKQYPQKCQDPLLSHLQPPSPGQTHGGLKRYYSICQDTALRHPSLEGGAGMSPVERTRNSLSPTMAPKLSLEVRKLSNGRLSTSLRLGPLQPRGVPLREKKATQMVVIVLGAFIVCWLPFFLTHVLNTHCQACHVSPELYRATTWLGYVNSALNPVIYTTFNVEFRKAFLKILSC
Another assay addresses T5, Vasopressin V1b receptor (Homo sapiens, UniProt P47901).
T5 sequence (P47901 whole entry): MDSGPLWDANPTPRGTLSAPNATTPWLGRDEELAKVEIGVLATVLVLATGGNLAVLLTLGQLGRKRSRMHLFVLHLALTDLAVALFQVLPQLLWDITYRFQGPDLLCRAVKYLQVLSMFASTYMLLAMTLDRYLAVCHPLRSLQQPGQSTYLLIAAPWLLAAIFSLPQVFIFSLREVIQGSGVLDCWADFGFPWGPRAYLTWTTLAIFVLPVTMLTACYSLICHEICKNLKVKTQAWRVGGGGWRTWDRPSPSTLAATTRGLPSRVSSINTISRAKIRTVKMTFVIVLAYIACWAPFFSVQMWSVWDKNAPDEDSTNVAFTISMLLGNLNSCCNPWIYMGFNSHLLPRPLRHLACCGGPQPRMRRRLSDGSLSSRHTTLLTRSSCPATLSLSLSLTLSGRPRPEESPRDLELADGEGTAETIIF

The target in assay [6] is 5-hydroxytryptamine receptor 1D (Homo sapiens, UniProt P28221).
5-hydroxytryptamine receptor 1D, sequence (P28221 whole entry): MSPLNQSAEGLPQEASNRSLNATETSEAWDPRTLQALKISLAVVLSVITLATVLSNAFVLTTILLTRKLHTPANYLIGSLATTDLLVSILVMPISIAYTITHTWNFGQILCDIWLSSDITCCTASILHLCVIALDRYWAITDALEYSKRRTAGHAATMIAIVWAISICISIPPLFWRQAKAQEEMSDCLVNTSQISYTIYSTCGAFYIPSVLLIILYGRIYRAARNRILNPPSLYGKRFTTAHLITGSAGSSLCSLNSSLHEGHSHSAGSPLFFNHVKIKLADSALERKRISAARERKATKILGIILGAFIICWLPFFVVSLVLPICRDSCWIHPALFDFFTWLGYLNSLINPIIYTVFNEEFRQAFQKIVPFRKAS
Assay [7] addresses Beta-1 adrenergic receptor (Rattus norvegicus, UniProt P18090).
Assay [8] addresses Beta-2 adrenergic receptor (Rattus norvegicus, UniProt P10608).

Values joined by “and” are separate entries in the source; they are usually repeats but may differ in a detail not shown here. Equal entries are not always repeated.

The Ki is the dissociation constant of the complex between target and ligand, obtained from inhibition or displacement.

Beta-2 adrenergic receptor, sequence (P10608 whole entry): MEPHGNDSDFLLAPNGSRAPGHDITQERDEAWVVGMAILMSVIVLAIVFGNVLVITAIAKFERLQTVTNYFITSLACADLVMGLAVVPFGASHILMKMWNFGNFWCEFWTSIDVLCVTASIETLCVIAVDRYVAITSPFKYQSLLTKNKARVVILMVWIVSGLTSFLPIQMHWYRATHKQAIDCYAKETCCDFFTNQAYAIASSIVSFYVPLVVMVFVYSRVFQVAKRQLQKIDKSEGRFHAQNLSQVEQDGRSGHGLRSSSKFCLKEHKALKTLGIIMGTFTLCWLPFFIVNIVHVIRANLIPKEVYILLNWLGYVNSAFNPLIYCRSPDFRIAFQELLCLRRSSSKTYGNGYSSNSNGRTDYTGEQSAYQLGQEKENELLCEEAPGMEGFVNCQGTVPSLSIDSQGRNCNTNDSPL
Beta-1 adrenergic receptor, sequence (P18090 whole entry): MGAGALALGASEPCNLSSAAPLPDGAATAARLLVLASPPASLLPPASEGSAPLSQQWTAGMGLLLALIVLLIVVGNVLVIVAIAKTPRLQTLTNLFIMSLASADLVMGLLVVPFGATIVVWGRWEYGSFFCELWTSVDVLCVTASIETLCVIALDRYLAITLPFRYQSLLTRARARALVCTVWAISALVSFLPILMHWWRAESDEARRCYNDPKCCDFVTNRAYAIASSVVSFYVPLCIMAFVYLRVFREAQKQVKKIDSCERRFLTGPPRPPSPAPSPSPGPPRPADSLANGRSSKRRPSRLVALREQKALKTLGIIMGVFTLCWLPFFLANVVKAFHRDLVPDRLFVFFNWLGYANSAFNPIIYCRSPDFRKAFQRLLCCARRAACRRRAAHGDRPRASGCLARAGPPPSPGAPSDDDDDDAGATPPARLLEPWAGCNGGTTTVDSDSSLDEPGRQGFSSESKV
Sodium-dependent dopamine transporter, sequence (P27922 whole entry): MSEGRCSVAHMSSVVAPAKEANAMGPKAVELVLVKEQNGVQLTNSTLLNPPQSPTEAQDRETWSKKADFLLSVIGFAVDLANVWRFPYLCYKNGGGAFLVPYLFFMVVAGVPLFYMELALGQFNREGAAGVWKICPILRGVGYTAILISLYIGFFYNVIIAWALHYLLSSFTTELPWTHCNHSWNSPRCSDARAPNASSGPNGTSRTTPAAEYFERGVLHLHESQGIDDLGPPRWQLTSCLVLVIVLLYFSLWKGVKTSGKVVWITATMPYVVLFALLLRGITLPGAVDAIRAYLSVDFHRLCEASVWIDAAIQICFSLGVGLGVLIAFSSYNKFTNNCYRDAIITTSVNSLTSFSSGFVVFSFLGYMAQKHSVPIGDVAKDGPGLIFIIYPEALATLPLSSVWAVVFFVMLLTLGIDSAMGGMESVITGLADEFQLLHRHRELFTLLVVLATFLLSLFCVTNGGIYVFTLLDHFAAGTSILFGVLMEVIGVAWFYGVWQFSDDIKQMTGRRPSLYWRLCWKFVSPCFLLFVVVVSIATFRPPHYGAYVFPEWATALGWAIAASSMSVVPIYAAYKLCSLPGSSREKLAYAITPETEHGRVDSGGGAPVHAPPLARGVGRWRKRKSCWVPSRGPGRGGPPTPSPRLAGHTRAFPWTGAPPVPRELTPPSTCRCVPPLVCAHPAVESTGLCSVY

For `O=c1cc(O)cc2oc(-c3ccc(O)c(-c4c(O)cc(O)c5c(=O)cc(-c6ccc(O)cc6)oc45)c3)cc(O)c1-2`, the Ki is more than 10 µM in assay [1]; more than 10 µM in assay [2]; 0.877 µM in assay [3]; more than 10 µM in assay [4]; more than 10 µM in [5]; 1.24 µM at D(3) dopamine receptor. Moreover, the Ki (at Vasopressin V1b receptor; in [6]; in assay [7]; in assay [8]) was more than 10 µM throughout.
On to `CC(C)=CCC[C@]1(C)[C@@H](CC=C(C)C)C[C@]2(CC=C(C)C)C(=O)C(CC=C(C)C)C(=O)[C@]1(C(=O)C(C)C)C2=O` (stereo not given in full), for which the inhibitory constant (Ki) (in [1]; in [2]; in assay [3]; in [4]; in [5]; on D(3) dopamine receptor) was more than 10 µM each time. For the same compound, the Ki (at Vasopressin V1b receptor; in assay [6]; in [7]; in assay [8]) was more than 10 µM each time.
Turning to `C[C@@H]1O[C@@H](Oc2c(-c3ccc(O)c(O)c3)oc3cc(O)cc(=O)c-3c2O)[C@H](O)[C@H](O)[C@H]1O`, the inhibitory constant (Ki) (in assay [1]; in assay [2]; in assay [3]; in assay [4]; in assay [5]; at D(3) dopamine receptor) was more than 10 µM each time. The inhibitory constant (Ki) (at Vasopressin V1b receptor; in assay [6]; in assay [7]; in [8]) was more than 10 µM throughout.
For the compound `O=c1c(O)c(-c2ccc(O)c(O)c2)oc2cc(O)cc(O)c12` [2-(3,4-dihydroxyphenyl)-3,5,7-trihydroxy-chromone;hydrate], the inhibition constant (Ki) (in assay [1]; in assay [2]; in [3]; in assay [4]; in [5]; on D(3) dopamine receptor) was more than 10 µM each time. For the same compound, the inhibition constant Ki (at Vasopressin V1b receptor; in assay [6]; in [7]; in [8]) was more than 10 µM in each case.
For `C[C@@H]1O[C@@H](OC[C@H]2O[C@@H](Oc3c(-c4ccc(O)c(O)c4)oc4cc(O)cc(O)c4c3=O)[C@H](O)[C@@H](O)[C@@H]2O)[C@H](O)[C@H](O)[C@H]1O` [3-Rhamnoglucosylquercetin], the inhibition constant (Ki) is more than 10 µM in assay [1]; more than 10 µM in assay [2]; more than 10 µM in assay [3]; 9.64 µM in assay [4]; 0.0351 µM in assay [5]; more than 10 µM on D(3) dopamine receptor. Also, the inhibition constant Ki (at Vasopressin V1b receptor; in [6]; in assay [7]; in assay [8]) was more than 10 µM each time.
Take `O=c1cc(O)cc2oc(-c3ccc(O)c(O)c3)c(OC3OC(CO)C(O)C(O)C3O)c(O)c1-2` (stereo not given) [NSC_5318390]: the inhibition constant (Ki) in assay [1] is more than 10 µM; in assay [2], more than 10 µM; in assay [3], more than 10 µM; in [4], > 10 µM and 4.06 µM; in assay [5] it was more than 10 µM; on D(3) dopamine receptor, more than 10 µM. The Ki (at Vasopressin V1b receptor; in assay [6]; in [7]; in [8]) was more than 10 µM each time.
